Test results: paper PMC5291411, “Cytotoxic conjugates of betulinic acid and substituted triazoles prepared by Huisgen Cycloaddition from 30-azidoderivatives” (PLoS ONE, 2017)

Tests used:
Assay type in all cases: cell-based
CEM-DNR = assay: Cytotoxic MTS assay, CEM-DNR; details: Homo sapiens, 72 h, daunorubicin resistant subline of CCRF-CEM
Excerpt: (§1) Cytotoxic activity of all synthesized compounds was investigated in vitro against eight human cancer cell lines and two non-tumor fibroblasts using the standard MTS test (Table 1). The cancer cell lines were derived from T-lymphoblastic leukemia CCRF-CEM, leukemia K562 and their multiresistant counterparts expressing P-glycoprotein, MRP1 and LRP proteins (CEM-DNR, K562-TAX), solid tumors including lung (A549) and colon (HCT116, HCT116p53-/-) carcinomas, osteosarcoma cell line (U2OS), and for comparison, tests were performed on two human non-cancer fibroblast cell lines (BJ, MRC-5).
(§2) Biological assays were performed in concordance with our previous publications [[29], [58]; [60]; [61]]. All cells (if not indicated otherwise) were purchased from the American Tissue Culture Collection (ATCC). The CCRF-CEM line is derived from T lymphoblastic leukemia, evincing high chemosenzitivity, K562 represent cells from an acute myeloid leukemia patient sample with bcr-abl translocation, U2OS line is derived from osteosarcoma, HCT116 is colorectal tumor cell line and its p53 gene knock-down counterpart (HCT116p53-/-, Horizon Discovery Ltd, UK) is a model of human cancers with p53 mutation frequently associated with poor prognosis, A549 line is lung adenocarcinoma. The daunorubicin resistant subline of CCRF-CEM cells (CEM-DNR bulk) and paclitaxel resistant subline K562-TAX were selected in our laboratory by the cultivation of maternal cell lines in increasing concentrations of daunorubicine or paclitaxel, respectively. The CEM-DNR bulk cells overexpress MRP-1 and P-glycoprotein protein, while K562-TAX cells overexpress P-glycoprotein only. Both proteins belong to the family of ABC transporters and are involved in the primary and/or acquired multidrug resistance phenomenon. MRC-5 and BJ cell lines were used as a non-tumor control and represent human fibroblasts. The cells were maintained in nunc/corning 80 cm^2 plastic tissue culture flasks and cultured in cell culture medium according to ATCC or Horizon recommendations (DMEM/RPMI 1640 with 5 g/L glucose, 2 mM glutamine, 100 U/mL penicillin, […] streptomycin, 10% fetal calf serum, and NaHCO3).
(§3) MTS assay was performed at Institute of Molecular and Translational Medicine by robotic platform (HighResBiosolutions). Cell suspensions were prepared and diluted according to the particular cell type and the expected target cell density (25000–35000 cells/mL based on cell growth characteristics). Cells were added by automatic pipetor (30 μL) into 384 well microtiter plates. All tested compounds were dissolved in 100% DMSO and four-fold dilutions of the intended test concentration were added in 0.15 μL aliquots at time zero to the microtiter plate wells by the echoacustic non-contact liquid handler Echo550 (Labcyte). The experiments were performed in technical duplicates and three biological replicates at least. The cells were incubated with the tested compounds for 72 h at 37°C, in a 5% CO2 atmosphere at 100% humidity. At the end of the incubation period, the cells were assayed by using the MTS test. Aliquots (5 μL) of the MTS stock solution were pipetted into each well and incubated for additional 1–4 h. After this incubation period, the optical density (OD) was measured at 490 nm with an Envision reader (Perkin Elmer). Tumor cell survival (TCS) was calculated by using the following equation: TCS = (ODdrug-exposed well/mean ODcontrol wells) × 100%. The IC50 value, the drug concentration that is lethal to 50% of the tumor cells, was calculated from the appropriate dose-response curves in Dotmatics software.

CCRF-CEM = assay: Cytotoxic MTS assay, CCRF-CEM; details: Homo sapiens, 72 h, T-lymphoblastic leukemia
Excerpt: as §1, §2, §3

K562 = assay: Cytotoxic MTS assay, K562; details: Homo sapiens, 72 h, leukemia
Excerpt: as §1, §2, §3

A549 = assay: Cytotoxic MTS assay, A549; details: Homo sapiens, 72 h, lung adenocarcinoma
Excerpt: as §1, §2, §3

HCT116 = assay: Cytotoxic MTS assay, HCT116; details: Homo sapiens, HCT-116, 72 h, colorectal tumor
Excerpt: as §1, §2, §3

MRC-5 = assay: Cytotoxic MTS assay, MRC-5 fibroblasts; details: Homo sapiens, MRC5, 72 h, non-tumor fibroblasts
Excerpt: as §1, §2, §3

K562-TAX = assay: Cytotoxic MTS assay, K562-TAX; details: Homo sapiens, 72 h, paclitaxel resistant subline of K562
Excerpt: as §1, §2, §3

BJ = assay: Cytotoxic MTS assay, BJ fibroblasts; details: Homo sapiens, 72 h, non-tumor fibroblasts
Excerpt: as §1, §2, §3

HCT116p53-/- = assay: Cytotoxic MTS assay, HCT116p53-/-; details: Homo sapiens, 72 h, p53 knock-down colorectal tumor
Excerpt: as §1, §2, §3

U2OS = assay: Cytotoxic MTS assay, U2OS; details: Homo sapiens, 72 h, osteosarcoma
Excerpt: as §1, §2, §3

Compound | IC50 (CEM-DNR) | IC50 (CCRF-CEM) | IC50 (K562) | IC50 (A549) | IC50 (HCT116) | IC50 (MRC-5) | IC50 (K562-TAX) | IC50 (BJ) | IC50 (HCT116p53-/-) | IC50 (U2OS)
C=C(Cn1cc(-c2ccccc2)nn1)[C@@H]1CC[C@]2(C(=O)O)CC[C@]3(C)C(CCC4[C@@]5(C)CC[C@H](O)C(C)(C)C5CC[C@]43C)C12 (stereo partly drawn) [Compound 11a] | 23.8 µM | 16.6 µM | > 50 µM | > 50 µM | > 50 µM | > 50 µM | 23.3 µM | > 50 µM | > 50 µM | > 50 µM
C=C(Cn1cc(-c2cccnc2)nn1)[C@@H]1CC[C@]2(C(=O)O)CC[C@]3(C)C(CCC4[C@@]5(C)CC[C@H](OC(C)=O)C(C)(C)C5CC[C@]43C)C12 (stereo partly drawn) [Compound 9d] | 12 µM | 14.9 µM | 13.3 µM | 11.3 µM | 19.2 µM | 28.2 µM | 11.2 µM | 29.9 µM | 18.7 µM | 17.3 µM
C=C(Cn1cc(C2CCCC2)nn1)[C@@H]1CC[C@]2(C(=O)O)CC[C@]3(C)C(CCC4[C@@]5(C)CC[C@H](O)C(C)(C)C5CC[C@]43C)C12 (stereo partly drawn) [Compound 11g] | 38 µM | 16.7 µM | > 50 µM | > 50 µM | 33.5 µM | > 50 µM | 23.3 µM | > 50 µM | > 50 µM | > 50 µM
C=C(Cn1cc(C2CCCC2)nn1)[C@@H]1CC[C@]2(C(=O)O)CC[C@]3(C)C(CCC4[C@@]5(C)CC[C@H](OC(C)=O)C(C)(C)C5CC[C@]43C)C12 (stereo partly drawn) [Compound 9g] | 30.8 µM | 26.2 µM | 43.6 µM | > 50 µM | 38.3 µM | > 50 µM | 29.1 µM | > 50 µM | 47.6 µM | 44.1 µM
C=C(Cn1cc(-c2ccc(N(C)C)cc2)nn1)[C@@H]1CC[C@]2(C(=O)O)CC[C@]3(C)C(CCC4[C@@]5(C)CC[C@H](OC(C)=O)C(C)(C)C5CC[C@]43C)C12 (stereo partly drawn) [Compound 9e] | 29.6 µM | 19.4 µM | 35.4 µM | 26.6 µM | 32.9 µM | 30.3 µM | 30 µM | 35.1 µM | 33.1 µM | 31 µM
C=C(Cn1cc(-c2ccc(C(C)(C)C)cc2)nn1)[C@@H]1CC[C@]2(C(=O)O)CC[C@]3(C)C(CCC4[C@@]5(C)CC[C@H](O)C(C)(C)C5CC[C@]43C)C12 (stereo partly drawn) [Compound 11f] | 13.7 µM | > 50 µM | > 50 µM | > 50 µM | 36.7 µM | > 50 µM | 16 µM | > 50 µM | > 50 µM | > 50 µM
C=C(Cn1cc(-c2ccccn2)nn1)[C@@H]1CC[C@]2(C(=O)O)CC[C@]3(C)C(CCC4[C@@]5(C)CC[C@H](O)C(C)(C)C5CC[C@]43C)C12 (stereo partly drawn) [Compound 11c] | 8.5 µM | 14.4 µM | > 50 µM | > 50 µM | > 50 µM | > 50 µM | 7.2 µM | > 50 µM | > 50 µM | > 50 µM
C=C(Cn1cc(-c2ccc(C(C)(C)C)cc2)nn1)[C@@H]1CC[C@]2(C(=O)O)CC[C@]3(C)C(CCC4[C@@]5(C)CC[C@H](OC(C)=O)C(C)(C)C5CC[C@]43C)C12 (stereo partly drawn) [Compound 9f] | 15 µM | 34.5 µM | 15.6 µM | 45 µM | 41.9 µM | > 50 µM | 23.4 µM | > 50 µM | 48.4 µM | 45.8 µM
C=C(Cn1cc(-c2ccccc2)nn1)[C@@H]1CC[C@]2(C(=O)O)CC[C@]3(C)C(CCC4[C@@]5(C)CC[C@H](OC(C)=O)C(C)(C)C5CC[C@]43C)C12 (stereo partly drawn) [Compound 9a] | 19.5 µM | 13.4 µM | 15.1 µM | 23.4 µM | 25.1 µM | 32.4 µM | 19.1 µM | > 50 µM | 31.1 µM | 24.8 µM
C=C(C)[C@@H]1CC[C@]2(C(=O)O)CC[C@]3(C)[C@H](CC[C@@H]4[C@@]5(C)CC[C@H](O)C(C)(C)[C@@H]5CC[C@]43C)[C@@H]12 [Compound 1, betulinic acid] | 45.4 µM | 45.5 µM | 40 µM | 43.4 µM | 38 µM | 32.9 µM | 43.1 µM | 37.6 µM | > 50 µM | > 50 µM
C=C(Cn1cc(CN)nn1)[C@@H]1CC[C@]2(C(=O)O)CC[C@]3(C)C(CCC4[C@@]5(C)CC[C@H](OC(C)=O)C(C)(C)C5CC[C@]43C)C12 (stereo partly drawn) [Compound 9h] | 28.3 µM | 20.2 µM | > 50 µM | 30.5 µM | 32 µM | > 50 µM | > 50 µM | > 50 µM | > 50 µM | 30.6 µM
C=C(CN=[N+]=[N-])[C@@H]1CC[C@]2(C(=O)O)CC[C@]3(C)C(CCC4[C@@]5(C)CC[C@H](O)C(C)(C)C5CC[C@]43C)C12 (stereo partly drawn) [Compound 8, 30-azidobetulinic acid] | 25.8 µM | 21.7 µM | 17.2 µM | 23 µM | 25.5 µM | 19.1 µM | 23.9 µM | 34 µM | 24 µM | 25 µM
